Patent US20240188571A1, “EMULSIFIABLE CONCENTRATE COMPOSITION AS WOOD PROTECTANT AND FOR TERMITE AND FUNGAL PATHOGENS CONTROL APPLICATIONS” (priority 2021, published 2024)
Marks after values point to notes of the source that are not given here.

Key:
[1] = test system: termite, Odontotermes sp.; assay: Topical (direct contact toxicity) assay against termites, planar arena; format: in vivo; details: 25 ml/lit., after 24 hours, mean of five replications
Experimental: (§1) The formulation was evaluated under laboratory conditions following standard protocols for its contact and surface toxicity, against termite, Odontotermes sp. to simulate real field conditions. In the topical (direct contact toxicity) assay, the bio-termiticide was sprayed directly on the termites and mortality (death), repellence (moving away) or anti-feedant (non-feeding) effects were studied. This assay was carried out in simulation of curative management viz., post-infestation management. In the surface toxicity assay the surface on which the termites walk over was sprayed, termites were allowed to move on the treated surface later and mortality (death), repellence (moving a way) or anti-feedant (non-feeding) effects were studied. This assay was carried out in simulation of preventive management viz., pre-infestation management. These two methods were planned as they suffice the current needs of pre- and post-infestation termite management.
(§2) Both the topical and surface toxicity bioassays were carried out using planar arena assay method (Chouvenc et al. 20112011, Planar Arenas for Use in Laboratory Bioassay Studies of Subterranean Termites (Rhinotermitidae). Florida Entomologist, 94(4): 817-826) with minor modifications. Seven concentrations of the cedar wood oil Emulsifiable concentrate formulation, standard check Chlorpyriphos and untreated control were used in the bioassay. […]

[2] = test system: termite, Odontotermes sp.; assay: Surface toxicity assay against termites, planar arena; format: in vivo; details: 25 ml/lit., termites released one hour after spraying, mean of five replications
Experimental: as §1, §2

[3] = test system: decay fungi; assay: Protection of wood from decay fungi, Marandi wood blocks kept in open space for one year; details: Marandi wood blocks sprayed, untreated control infested by Fusarium oxysporum
From the text: Blocks of Marandi wood of size 30×15×4 cm (L×B×W) were taken for the experiment. The emulsion of cedar wood oil emulsifiable concentrate formulation in water was sprayed on two replicates of wooden blocks using a band sprayer. No emulsion was applied on untreated control. Market sample of Propiconazole was used as standard check for comparing the effect of this botanical cedar wood oil emulsifiable concentrate formulation. The blocks after application and untreated control were kept in open space for a period of one year starting from the month of November up to the month of October to subject the blocks to winter, summer and rainy season. Observations on the wooden blocks were taken to check the infestation of fungi and damage caused by fungi.

SMILES	Percent Mortality [1]	Percent repellence [1]	Percent Mortality [2]	Percent repellence [2]	infestation of fungi on treated wooden blocks [3]
CCOP(=S)(OCC)Oc1nc(Cl)c(Cl)cc1Cl [Chlorpyriphos]	92 (73.57)^b Percent	0 (0.29)^e Percent	80 (63.43)^b Percent	4 (11.54)^e Percent	–
CCCC1COC(Cn2cncn2)(c2ccc(Cl)cc2Cl)O1 (centres unmarked) [Propiconazole]	–	–	–	–	No infestation of the fungi
